# Values quoted from earlier work, collected in US10946075B1 (priority 2014, dated 2021).
# B1: papain (protein, UniProt P00784 134-345, looked up)
# Papain: IPEYVDWRQKGAVTPVKNQGSCGSCWAFSAVVTIEGIIKIRTGNLNEYSEQELLDCDRRSYGCNGGYPWSALQLVAQYGIHYRNTYPYEGVQRYCRSREKGPYAAKTDGVRQVQPYNEGALLYSIANQPVSVVLEAAGKDFQLYRGGIFVGPCGNKVDHAVAAVGYGPNYILIKNSWGTGWGENGYIRIKRGTGNSYGVCGLYTSSFYPVKN
# Tests used:
# murine neuroblastoma = settings: mouse, in vivo
# mice [1] = settings: mouse, in vivo, 16 mg/kg
# [2] = in vivo
# thyroid gland = settings: rat, in vivo
# humans = settings: human
# mice [3] = settings: mouse, in vivo
# dogs [4] = settings: dog, in vivo
# dogs [5] = settings: dog, in vivo; remark: listed apart in the source
# rat gamete = settings: in vivo
# [6] = in vivo; remark: listed apart in the source
# rats = settings: rat, in vivo
molecule,measurement,setting,value
"O=C(O)CCCCC1CCSS1 (stereo not drawn) [Alpha lipoic acid, Alpha Lipoic Acid]",survival rate,murine neuroblastoma,about 10%
same,number of surviving animals,mice [1],doubled
CC1=C(/C=C/C(C)=C/C=C/C(C)=C/C=C/C=C(C)/C=C/C=C(C)/C=C/C2=C(C)CCCC2(C)C)C(C)(C)CCC1 [Beta Carotene],survival,[2],80%
"NCCC[C@](N)(C(=O)O)C(F)F [DFMO, alpha-difluoromethylornithine]",putrescine and spermidine levels,polyamine biosynthesis,nondetectable levels
same,spermine decrease,polyamine biosynthesis,50%
same,radiation-induced cell death,cells,50-60 % of control
"C[S+](C)[O-] [DMSO, Dimethylsulfoxide]",induction of micronuclei by bystander effect cells,bystander effect cells,completely suppressed
"[I-].[K+] [KI, Potassium iodide]",131I- excreted in urine,thyroid gland,30%
same,approximate LD50 in humans,humans,~500 mg/kg
Cc1cc2nc3c(=O)[nH]c(=O)nc-3n(C[C@H](O)[C@H](O)[C@H](O)CO)c2cc1C [riboflavin],mortality and DNA damages,mice [3],higher mortality rates and more DNA damages
O=C([O-])CC(O)(CC(=O)[O-])C(=O)[O-].[Na+].[Na+].[Na+] [sodium citrate],treated dogs survived,dogs [4],100%
"O=C1O[C@H]([C@@H](O)CO)C(O)=C1O [vitamin C, Ascorbic Acid]",reduction of mortality rate,dogs [5],50%
same,increase of gamete survival vs. controls (factor),rat gamete,2.2
same,protection over control,hamster ovary cells,seven-fold
Vitamin E,white cell count,[6],doubled
B1,survival,rats,50%
